Test results: article PMC6471485, “Selective Inhibitors of a Human Prolyl Hydroxylase (OGFOD1) Involved in Ribosomal Decoding” (Chemistry (Weinheim an Der Bergstrasse, Germany), 2019)
Entries after “also recorded” stand apart in the source; their conditions may differ.

How the values were obtained:
OGFOD1 [1] = biological target: T1, OGFOD1 (Homo sapiens, UniProt Q8N543); experiment: CPMG-edited 1H NMR binding experiment with OGFOD1; conditions: 30 µM inhibitor, 30 µM OGFOD1
T1 sequence (Q8N543 1-542): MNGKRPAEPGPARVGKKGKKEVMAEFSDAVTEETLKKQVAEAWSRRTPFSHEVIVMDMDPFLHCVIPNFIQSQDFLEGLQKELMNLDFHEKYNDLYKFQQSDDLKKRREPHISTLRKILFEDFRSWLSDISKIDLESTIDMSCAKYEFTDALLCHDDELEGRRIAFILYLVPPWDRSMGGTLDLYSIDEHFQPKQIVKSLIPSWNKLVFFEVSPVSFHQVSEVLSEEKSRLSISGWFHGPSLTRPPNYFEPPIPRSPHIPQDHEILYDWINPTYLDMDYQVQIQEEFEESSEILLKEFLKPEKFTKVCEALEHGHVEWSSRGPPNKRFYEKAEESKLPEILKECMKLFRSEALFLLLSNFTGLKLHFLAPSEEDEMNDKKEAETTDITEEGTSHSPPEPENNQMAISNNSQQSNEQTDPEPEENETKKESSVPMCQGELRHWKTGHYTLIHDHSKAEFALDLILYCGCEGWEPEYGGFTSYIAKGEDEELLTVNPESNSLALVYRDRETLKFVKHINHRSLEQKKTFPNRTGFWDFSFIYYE
Protocol: RapidFire integrator software (Agilent). Percent conversion was calculated in Excel, and IC50 curves were generated using Prism v. 7.0 (GraphPad).
Differential Scanning Fluorimetry (DSF) Assays
Assays consisted of enzyme (2 µM), inhibitor (200 µM), MnCl2 (50 µM), and SYPRO Orange (1:5000 dilution), all prepared in 50 mM HEPES, pH 7.5. Assays were conducted using white 96-well RT-PCR plates. An Opticon thermal cycler (MJ Research Inc) was used to control temperature and measure fluorescence. Data were processed using the OpticonMONITOR Analysis Software, while curve fitting was performed in Prism […]
Stable small-molecule inhibitor conformations were investigated using the MM2 force field method in ChemBio3D 11.0 (PerkinElmer Informatics). Protein structures were aligned using PyMOL version 2.0 (Schrödinger, LLC). The small-molecule inhibitors were then modelled into the protein active sites, overlaying them with the already contained inhibitor, if applicable (e.g., FG2216 with PHD2, PDB 3HQU; N-oxalylglycine with OGFOD1, PDB 4NHX). […]
CPMG Binding Experiments: Binding of the inhibitors to the proteins was monitored using Carr-Purcell-Meiboom-Gill (CPMG)-edited 1H spectra. […]
Competition Experiments by 2OG Displacement: 2OG displacement assays[12] were performed using CPMG-edited 1H spectra. […] The 2OG methylene resonance at 2.35 ppm was monitored. […]

OGFOD1 [2] = biological target: T1, OGFOD1; experiment: wLOGSY NMR binding experiment with OGFOD1; conditions: 120 µM inhibitor, 15 µM OGFOD1
Protocol: total echo time of 40 ms, a relaxation delay of 2 s, with 256 scans. Water suppression was achieved by presaturation. Samples contained 30 µM apo-PHD2181-426 or OGFOD1, supplemented with 60 µM Zn(II), 30 µM of inhibitor, all in 50 mM Tris-d11, pH 7.5, 10 % D2O, […]
wLOGSY Binding Experiments: For water-ligand observed gradient spectroscopy (wLOGSY) analyses, typical experimental parameters were the following: mixing time, 1 s; relaxation delay, 2 s; number of transients, 512. Solvent excitation was achieved using a 16-ms 180° selective rectangular shape pulse with 1,000 points (Squa100.1000) set at the H2O frequency.
Water suppression was achieved by a 2-ms sinc pulse (Sinc1.1000) at the H2O frequency.
Samples contained 5-fold molar excess inhibitor:protein as detailed in the figure legends; all analyses were in 50 mM Tris-d11, pH 7.5, 10 % D2O, 90 % H2O supplemented with 60 µM […]
Competition Experiments by 2OG Displacement: 2OG displacement assays[12] were performed using CPMG-edited 1H spectra. The PROJECT-CPMG sequence was applied as described by Aguilar et al.[11] The standard experimental parameters used were a total echo time of 40 ms, a relaxation delay of 2 s, with 160 scans. Water suppression was achieved by presaturation. The 2OG methylene resonance at 2.35 ppm was monitored. The percentage 2OG displacement was […]
% 2OG displacement = !2OG%!2OG(0) ×100 […]

Row | Structure (SMILES) | binding to OGFOD1 by 1H CPMG NMR, in words (OGFOD1 [1]; listed as CCT4) | binding to OGFOD1 by wLOGSY NMR, in words (OGFOD1 [2]) | binding to OGFOD1 by 1H CPMG NMR, in words (OGFOD1 [1]; listed as CCT3)
1 | Cn1c(O)c(C(=O)CCc2cccs2)c(=O)n(C)c1=O [compound 42] | strong binding; also recorded: strongly bind to OGFOD1 | indicates a binding interaction | –
2 | Cn1c(O)c(C(=O)CCc2ccccc2)c(=O)n(C)c1=O [compound 26] | – | indicates a binding interaction | strong binding; also recorded: strongly bind to OGFOD1
